Source: patent EP0213108A2, “Pharmaceutical preparation containing an antihypotonic as the active agent” (Burghart, Kurt, Dr., priority 1985, dated 1987)
Structures can show the parent of a compound that is named as a salt.

Assay: Pulse and systolic/diastolic blood pressure over time after sublingual aerosol or oral administration
Format: in vivo
Conditions: hydrochloride, oral
Experimental: Die raschere Wirksamkeit der erfindungsgemäßen pharmazeutischen Zubereitung relativ zu einer konventionellen Zubereitung wird nachfolgen an Hand eine Ausführungsbeispieles näher erläutert.
In einer alkoholischen Lösung wurden hiebei unter Verwendung von Trichlorfluorkohlenwasserstoff als Treibgas 2,5 mg 1-(3'--Hydroxyphenyl)-2-aminoäthanol als Aerosol sublingual verabreicht. In der nachfolgenden Tabelle I sind unter A die Vergleichswerte für den systolischen und den diastolischen Druck über die Zeit bei Versprühen eines Placebos, unter B die Werte für den systolischen und den diastolischen Druck über die Zeit bei Verabreichung von 2,5 mg Base als Aerosol und unter C die systolischen und diastolischen Druckwerte bei Verabreichung der gleichen Wirksubstanz als Hydrochlorid und oral über die Zeit aufgetragen, wobei mit dem Zeitpunkt 0 Referenzwerte vorangestellt sind. Aus Tabelle B ist hiebei der rasche diastolische Druckanstieg bei sublingualer Verabreichung als Aerosol ersichtlich, wohingegen aus Tabelle C eine Steigerung des diastolischen Drucks frühestens nach Ablauf von 15 min entnommen werden kann.

NCC(O)c1cccc(O)c1 (stereo not shown) [C, 1-(3'-Hydroxyphenyl)-2-aminoäthanol-hydrochlorid]
Steigerung des diastolischen Drucks (time of onset): ≥ 15 min | Diastole (1'): 8,53 kPa | Puls (1'): 64 min⁻¹ | Systole (1'): 14,40 kPa | Diastole (3'): 8,67 kPa | Puls (3'): 66 min⁻¹ | Systole (3'): 14,00 kPa | Diastole (5'): 8,53 kPa | Puls (5'): 71 min⁻¹ | Systole (5'): 14,27 kPa | Diastole (7'): 8,53 kPa | Puls (7'): 68 min⁻¹ | Systole (7'): 14,40 kPa | Diastole (10'): 8,80 kPa | Puls (10'): 66 min⁻¹ | Systole (10'): 14,67 kPa | Diastole (12'): 8,80 kPa | Puls (12'): 68 min⁻¹ | Systole (12'): 13,87 kPa | Diastole (15'): 8,67 kPa | Puls (15'): 77 min⁻¹ | Systole (15'): 14,40 kPa | Diastole (20'): 9,33 kPa | Puls (20'): 52 min⁻¹ | Systole (20'): 14,93 kPa | Diastole (25'): 8,80 kPa | Puls (25'): 67 min⁻¹ | Systole (25'): 13,73 kPa | Diastole (30'): 9,60 kPa | Puls (30'): 69 min⁻¹ | Systole (30'): 14,27 kPa
